Results reported in patent US20250197368A1 (priority 2020, published 2025).

How the values were obtained:
human α2β3γ2 GABAARs = assay: In vitro electrophysiological recording assay (automated patch-clamp), α2-GABAAR relative efficacy; assay type: cell-based; details: % efficacy normalised to diazepam; GABA EC10-20; concentration generally >= 100 times Ki
Method in brief: (§1)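 Relative efficacy is % enhancement of the leak-subtracted GABA EC10-20 peak current, divided by the separately measured diazepam value; compound generally tested at ≥100× Ki after ≥1 min pre-application. Recordings at room temperature, human receptors stably expressed in L(tk^−) (QPatch, −65 mV) or HEK293 (SyncroPatch, −80 mV) cells.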

human α3β3γ2 GABAARs = assay: In vitro electrophysiological recording assay (automated patch-clamp), α3-GABAAR relative efficacy; assay type: cell-based; details: % efficacy normalised to diazepam; GABA EC10-20; concentration generally >= 100 times Ki
Method in brief: as §1

[1] = target: human α3β3γ2 GABAARs (benzodiazepine site) (Homo sapiens (Human), UniProt P18507+P34903); assay: In vitro radioligand binding assay ([3H]Ro15-1788 displacement), α3-GABAAR Ki; details: L(tk-) cell membranes, 4 nM [3H]Ro15-1788
Method in brief: (§2)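 Ki derived via Cheng-Prusoff from IC50 for displacement of 4 nM [3H]Ro15-1788 (Kd from saturation binding), with 1-3 μM TP003 defining nonspecific binding. Incubation lasted 1 h at 4° C on membranes of induced L(tk−) cells stably transfected with the human subunits; detection by filtration and scintillation counting.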

[2] = target: human α2β3γ2 GABAARs (benzodiazepine site) (Homo sapiens (Human), UniProt P18507+P47869); assay: In vitro radioligand binding assay ([3H]Ro15-1788 displacement), α2-GABAAR Ki
Method in brief: as §2

Chain of human α2β3γ2 GABAARs (benzodiazepine site) (P47869 29-451): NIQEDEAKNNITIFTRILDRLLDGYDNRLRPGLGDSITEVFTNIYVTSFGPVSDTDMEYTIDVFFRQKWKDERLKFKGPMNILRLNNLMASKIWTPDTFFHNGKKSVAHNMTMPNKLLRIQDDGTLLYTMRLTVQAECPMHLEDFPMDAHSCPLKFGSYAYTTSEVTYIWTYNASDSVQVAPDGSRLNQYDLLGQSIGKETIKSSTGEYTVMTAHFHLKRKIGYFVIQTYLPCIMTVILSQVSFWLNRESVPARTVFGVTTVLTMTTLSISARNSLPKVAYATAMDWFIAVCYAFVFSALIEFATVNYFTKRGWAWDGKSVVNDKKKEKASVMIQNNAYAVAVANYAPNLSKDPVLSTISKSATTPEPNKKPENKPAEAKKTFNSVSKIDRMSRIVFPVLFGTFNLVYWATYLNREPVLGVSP
Chain of human α2β3γ2 GABAARs (benzodiazepine site) (P28472 26-473 partner): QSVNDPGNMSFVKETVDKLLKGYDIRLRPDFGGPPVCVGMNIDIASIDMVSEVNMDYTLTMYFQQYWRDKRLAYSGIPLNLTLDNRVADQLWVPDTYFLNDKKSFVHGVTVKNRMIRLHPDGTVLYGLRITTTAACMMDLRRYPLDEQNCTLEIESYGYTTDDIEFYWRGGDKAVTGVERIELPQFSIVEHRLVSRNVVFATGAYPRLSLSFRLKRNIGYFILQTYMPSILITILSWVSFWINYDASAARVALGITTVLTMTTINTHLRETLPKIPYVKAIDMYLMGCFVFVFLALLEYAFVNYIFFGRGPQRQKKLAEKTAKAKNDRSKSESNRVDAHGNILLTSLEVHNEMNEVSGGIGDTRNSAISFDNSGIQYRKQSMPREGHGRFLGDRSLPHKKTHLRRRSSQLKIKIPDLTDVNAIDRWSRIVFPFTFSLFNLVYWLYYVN
Chain of human α2β3γ2 GABAARs (benzodiazepine site) (P18507 40-475): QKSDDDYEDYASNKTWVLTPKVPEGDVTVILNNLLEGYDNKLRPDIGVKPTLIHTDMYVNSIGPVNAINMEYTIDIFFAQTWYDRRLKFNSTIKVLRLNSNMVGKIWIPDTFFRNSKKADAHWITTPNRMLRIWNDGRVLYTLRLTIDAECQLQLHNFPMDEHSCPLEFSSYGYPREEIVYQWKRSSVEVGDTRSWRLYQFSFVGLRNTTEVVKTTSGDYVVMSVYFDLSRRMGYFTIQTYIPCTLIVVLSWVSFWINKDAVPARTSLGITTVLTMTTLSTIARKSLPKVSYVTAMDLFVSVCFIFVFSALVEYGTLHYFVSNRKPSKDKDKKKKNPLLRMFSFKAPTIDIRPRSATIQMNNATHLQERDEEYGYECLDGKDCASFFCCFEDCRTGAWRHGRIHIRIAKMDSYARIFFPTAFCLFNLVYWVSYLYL

## CCCNC(=O)c1c(N)c2cccc(-c3cnccc3OC)c2[nH]c1=O [Example 17, 4-Amino-8-(4-methoxy-3-pyridyl)-2-oxo-N-propyl-1H-quinoline-3-carboxamide]
Human α2β3γ2 GABAARs
  α2-GABAAR Relative Efficacy (vs. Diazepam): 0.33
Human α3β3γ2 GABAARs
  α3-GABAAR Relative Efficacy (vs. Diazepam): 0.42
[1]
  Ki: 8.74 nM
[2]
  Ki: 1.64 nM

## CCCNC(=O)c1c(N)c2cccc(-c3cnc(C)cc3OC)c2[nH]c1=O [Example 18, 4-Amino-8-(4-methoxy-6-methyl-3-pyridyl)-2-oxo-N-propyl-1H-quinoline-3-carboxamide]
Human α2β3γ2 GABAARs
  α2-GABAAR Relative Efficacy (vs. Diazepam): 0.29
Human α3β3γ2 GABAARs
  α3-GABAAR Relative Efficacy (vs. Diazepam): 0.21
[1]
  Ki: 27.9 nM
[2]
  Ki: 9.77 nM

## CCCNC(=O)c1c(N)c2cccc(-c3nc(C)ncc3F)c2[nH]c1=O [Example 40, 4-Amino-8-(5-fluoro-2-methyl-pyrimidin-4-yl)-2-oxo-N-propyl-1H-quinoline-3-carboxamide]
Human α2β3γ2 GABAARs
  α2-GABAAR Relative Efficacy (vs. Diazepam): 0.29
Human α3β3γ2 GABAARs
  α3-GABAAR Relative Efficacy (vs. Diazepam): 0.31
[1]
  Ki: 5.06 nM
[2]
  Ki: 1.19 nM
